# Experimental data published in patent publication US4939178A, “Use of avarol for the control of adult T-cell leukemia/lymphoma” (Merz + Co. GmbH & Co., priority 1986, dated 1990).
# Read-outs that look alike come from different tables or passages of the source.
# Experiments:
# [1] = tested on: ATL-1K cells; experiment: Cell growth of ATL-1K cells; type: cell-based; details: two days, control 15.7
# Source text: (§1) For this, the MT-2, ATL-3I, and ATL-1K cell lines were employed. These cell lines are described by Hashino, H., et al., Proc. Nat. Academy Science U.S.A. 80, 6061-6065 (1983) and by Miyoshi, J., et al., Nature 294, 770-771 (1981). All these cell lines contain the HTLV-provirus, and among these cell lines primarily the lines MT-2 and ATL-3I express also the retrovirus antigens and also produce the HTLV-I virus.
# (§2) Cell culture conditions were employed according to those described by H. Hoshino, et al., Proc. Nat. Acad. Sci. (U.S.A.) 80, 1983, 7337-7341.
# (§3) ATL-3-I, MT-2, and ATL-1K cells were seeded into Petri dishes in a concentration of 3×10^3 cells/cm^2 in a culture medium containing 20% of calf serum. After incubation for two days, the density of the cells amounted to: […]: 13.2×10^3 cells/cm^2; MT-2: 12.4×10^3 cells/cm^2; ATL-1K: 15.7×10^3 cells/cm^2. These values formed the control values.
# (§4) Thereupon samples of these cells were treated for two days with different concentrations of avarol.
# [2] = tested on: MT-2 cells; experiment: Cell growth of MT-2 cells; type: cell-based; details: two days, control 12.4
# Source text: as §1, §2, §3, §4
# [3] = tested on: macrophage-containing and macrophage-depleted lymphocyte cultures; experiment: [3H]-dThd incorporation in lymphocyte cultures of pretreated mice; details: pretreatment of mice with avarol, lymphocyte cultures in vitro
# [4] = tested on: male Sprague-Dawley rats; experiment: Antibody mediated hypersensitivity, modified active Arthus reaction; type: in vivo
# Experimental: A modified active Arthus reaction was performed as described (Titus et al., J. Immunol. Methods 45: 65-78; 1981). Male Sprague-Dawley rats (8/group) weighing 120 g were immunized by injecting into the tail base 0.5 ml of a suspension of 4.4 ml pertussis vaccine (Behringwerke, Marburg) in 65.6 ml of 0.9% saline plus 0.7 g ovalbumin (3×cryst.) in 100 ml paraffin oil. Three weeks after immunization 0.1 ml of 0.03% ovalbumin solution were injected into a hind paw and the paw volume was measured with a water plethysmometer (Rhema) immediately thereafter and again after 4 hours. The animals were treated i.p. with daily doses from 3-30 mg/kg of avarol (in 0.15% [w/v] methylcellulose) according to the following schedules: (i) day -1 to +2, (ii) day +18 to +21 or (iii) twice 24 hours and 30 minutes before challenge (day 0 represents the day of immunization). The controls received methylcellulose only. Values are compared with a control group using Student's-t-test (L. Sachs. Angewandte Statistik, Springer-Verlag, Berlin; 1984).
# [5] = Organ distribution of tritium labelled avarol; type: in vivo, rats
# Experimental: The organ distribution was determined by the same method using tritium labelled Avarol. The determinations were performed 24 hours after termination of the i.v. application. These concentrations were determined on the basis of radioactivity. Moreover, the chemical nature of the radioactive product was identified by high-pressure liquid chromatography and found to consist of over 90% of Avarol. In addition, the biological activity of the compound in the blood was determined after extraction with ethyl acetate and estimated in the […] cell system in vitro (Muller, W. E. G. et al.; Comp. Biochem. Physiol. 80C, 47-52; 1985). Using this system, the biological activity of the compound, present in the blood, was determined and converted on a gram basis. Using this approach the concentration in the blood was only 5-15% lower than that determined on the basis of radioactivity.
# [6] = tested on: ATL-3-I cells; experiment: Cell growth of ATL-3-I cells; type: cell-based; details: two days, control 13.2
# Source text: as §1, §2, §3, §4
# [7] = tested on: male NMRI mice; experiment: Contact allergy to oxazolone; type: in vivo; details: 3-30 mg/kg i.p., day -1 to +2 or day +6 to +8; P>0.05
# [8] = type: in vivo, rats
# [9] = tested on: peripheral human lymphocytes (buffy coat cells); experiment: Interferon-gamma production by lymphocytes (EIA); type: cell-based
# Experimental: Effector cells: Buffy coat cells were prepared by centrifugation on Ficoll-Plaque gradient and washed two times. Subsequently the cells were divided and adjusted to a concentration of 5×1,000,000 cells/ml.
# Interferon measurement: Levels of Interferon were defined by an Enzymeimmunoassay (EIA). Interferon gamma: 96 well flat bottom plates (Greiner, Nuertingen) were coated with a monoclonal antibody recognizing Interferon gamma. 200 μl of the supernatant sample were added per well together with Interferon gamma-peroxidase coupled (50 μl), consisting of the same antibody as used for coating. […] The enzymatic reaction is completed by a preparation containing hydrogen peroxide substrate. The reaction is stopped within 15 minutes by 100 μl of sulfuric acid per well. The amount of Interferon is defined by comparing the extinction of the test sample with a standard curve produced by known values of Interferon gamma.
# [10] = tested on: T-cell derived leukemia cells; details: cited from earlier work
# [11] = tested on: male NMRI mice immunized with SRBC; experiment: Jerne plaque test, in vivo immunoglobulin production; details: avarol 30 mg/kg i.p., from 0 to +4
# Experimental: The plaque test of Jerne and Nordin (Science 140: 405-406, 1963) was used with the modification given by Cunningham and Szenberg (Immunolog. 14: 599-601; 1968). Briefly, 8 male NMRI mice per group (20-22 g) were immunized on day 0 by i.p. injection of 5×10^8 SRBC in 0.5 ml saline. Treatment with avarol was done i.p. either from day 0 to day +4 or from day -4 to day 0. One hour after the last drug administration, the animals were killed by a blow on the head and bled. The spleens were removed and a single cell suspension was prepared by teasing the pooled spleens through a 120μm mesh sieve. After lysing the erythrocytes by 0.15M NH4 Cl, the cells were washed twice in Hank's balanced salt solution containing 29 ml of 7.5% NaHCO3 and 10 ml of 1M HEPES buffer solution per one liter. The cells were resuspended in 2 ml per spleen. Six Cunningham chambers per group were filled with a mixture of 0.5 ml of a suitable dilution of spleen cells (generally 1:100), 0.5 ml of a suspension of SRBC (10^9 /ml) and 125 μl of normal guinea pig complement. After 90-120 min of incubation at 37° C., the number of plaques was counted. Plaques per spleen or per 10^6 spleen cells were calculated.
# The pooled blood of 8 mice was centrifuged to obtain the serum. IgM and IgG titers were measured with the mercaptoethanol method (Hudson, L. and Hay, F. C. Practical Immunology, Blackwell Sci., Oxford; 1983).
# [12] = tested on: retroviral (HTLV-I) antigen in ATL-3-I cells; experiment: microbe, parasite or virus in culture; type: cell-based; details: Primate T-lymphotropic virus 1, read-out: Expression of retroviral antigen (in %)
# [13] = tested on: male NMRI mice; experiment: Delayed-type hypersensitivity to sheep red blood cells; type: in vivo
# Experimental: Reaction to sheep red blood cells (SRBC): DTH was produced according to the method of Lagrange et al. (J. Exp. Med. 139: 528-542; 1974) and Liew (Eur. J. Immunol. 7, 714-718; 1977). Male NMRI mice (20-23 g, 10 animals/group) were immunized with 10^8 SRBC/40 μl into one foot pad (day 0). Four days later 10^9 SRBC/40 μl were injected into the other foot pad. After 24 hours, paw size was measured with a dial gauge caliper Odi-Test OOT (H. C. Kroeplin, Schluchtern, Germany). Avarol (in 0.15% [w/v] methylcellulose) was administered daily i.p. either from day -2 to +1 or from day +2 to +4. The level of DTH was expressed as foot pad increase, determined after 24 hrs; and it is given in mm. Non-treated groups were injected i.p. with methylcellulose only. Treated groups were compared with the controls using the U-test of Wilcoxon et al. (Sachs, L. Angewandte Statistik, Springer-Verlag, Berlin; 1984).
structure (smiles),measurement,setting,value
"CC1=CCC[C@H]2[C@](C)(Cc3cc(O)ccc3O)[C@@H](C)CC[C@]12C [Avarol, 2-[(1R)-1,2,3,4,4a,7,8,8aα-octahydro-1β,2β,4aβ,5-tetramethyl-1-naphthylmethyl]-1,4-benzenediol]",Cell concentration ATL-1K,[1]; drug 1.0 μg/ml,13.4 × 10^3 /cm^2
same,Cell concentration ATL-1K,[1]; drug 5.0 μg/ml,10.3 × 10^3 /cm^2
same,Cell concentration MT-2,[2]; drug 1.0 μg/ml,8.1 × 10^3 /cm^2
same,Cell concentration MT-2,[2]; drug 5.0 μg/ml,7.9 × 10^3 /cm^2
same,[3H]-dThd incorporation rate,[3],higher
same,suppression of the Arthus reaction,"[4]; 30 mg/kg, 24 hours and 30 minutes before challenge, P>0.05",not significant
same,suppression of the Arthus reaction,"[4]; 3-30 mg/kg i.p., day -1 to +2, day +18 to +21 or immediately before challenge",no significant suppression
same,"Concentration of Avarol, Skin","[5]; 10 mg/kg i.v., 24 hours",0.6 microgram of Avarol per gram o
same,"Concentration of Avarol, Brain","[5]; 20 mg/kg i.v., 24 hours",0.64 microgram of Avarol per gram o
same,blood-brain barrier penetration,[5]; rats,penetrates the blood-brain barrier
same,Cell concentration ATL-3-I,[6]; drug 1.0 μg/ml,9.4 × 10^3 /cm^2
same,Cell concentration ATL-3-I,[6]; drug 5.0 μg/ml,8.7 × 10^3 /cm^2
same,influence on DTH oxazolone,[7],did not influence significantly
same,Percentage of Radioactivity in Blood,"[8]; 10 mg/kg i.v., 1 hour",96%
same,Percentage of Radioactivity in Blood,"[8]; 10 mg/kg i.v., 6 hours",88%
same,Percentage of Radioactivity in Blood,"[8]; 10 mg/kg i.v., 12 hours",72%
same,Percentage of Radioactivity in Blood,"[8]; 10 mg/kg i.v., 24 hours",43%
same,Percentage of Radioactivity in Blood,"[8]; 10 mg/kg i.v., 48 hours",26%
same,Percentage of Radioactivity in Blood,"[8]; 20 mg/kg i.v., 1 hour",92%
same,Percentage of Radioactivity in Blood,"[8]; 20 mg/kg i.v., 12 hours",75%
same,Percentage of Radioactivity in Blood,"[8]; 20 mg/kg i.v., 24 hours",39%
same,Percentage of Radioactivity in Blood,"[8]; 20 mg/kg i.v., 48 hours",21%
same,Percentage of Radioactivity in Blood,"[8]; rat, in vivo",83
same,Titer of Interferon-gamma produced by lymphocytes,"[9]; avarol 1.0 μg/ml, 48 hours",52 Units/ml of supernatant
same,optimal dose for Interferon gamma induction in vitro,[9]; buffy coat cells,0.5 µg/mL
same,lymphoma cell growth inhibited by 50%,[10],0.3 to 0.4 µg/mL
same,Cell/spleen,[11],1.2e+08 cells/spleen
same,activity at 1 µg/mL,[12],82%
same,activity at 5 µg/mL,[12],74%
same,influence on DTH to SRBC,"[13]; i.p. day +2 to +4 after immunization, doses higher than 10 mg/kg",weak but significant immunosuppressive effect
same,influence on DTH to SRBC,"[13]; i.p. day -2 to +1, up to daily doses of 30 mg/kg",no significant immunosuppressive influence
